We go through 18 compounds from patent US11236055B2 (Venenum Biodesign, LLC, priority 2016, dated 2022).

What is called EC50 is the concentration needed to bring the measured effect to its halfway point.

The target in one assay is T1, human TGR5 receptor (Homo sapiens, UniProt Q8TDU6).
T1 construct: host or cells: CHO-K1 (hTGR5-CHO cells)
T1 sequence (Q8TDU6 1-330): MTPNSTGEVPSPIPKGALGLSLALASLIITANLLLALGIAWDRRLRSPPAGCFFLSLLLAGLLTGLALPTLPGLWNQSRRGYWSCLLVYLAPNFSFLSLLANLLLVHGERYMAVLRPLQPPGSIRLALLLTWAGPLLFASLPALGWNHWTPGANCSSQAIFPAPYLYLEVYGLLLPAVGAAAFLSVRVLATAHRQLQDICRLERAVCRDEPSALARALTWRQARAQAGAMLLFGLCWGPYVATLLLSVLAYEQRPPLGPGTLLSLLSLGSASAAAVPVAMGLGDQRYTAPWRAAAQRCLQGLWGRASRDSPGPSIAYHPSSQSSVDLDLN
The assay can be described thus: Human TGR5 cAMP production assay. Format: cell-based. Conditions: human TGR5, luminescent cAMP assay; coded A-D; read-out: Human TGR5 Lum. cAMP Activity (EC50). How it is done:
Human TGR5 cAMP Production Assay
We evaluated the Compounds of the present invention for their ability to induce cAMP production using CHO-K1 cells overexpressing the human TGR5 receptor. CHO-K1 cells stably expressing human TGR5 receptor (accession number NM_001077194.1 (hTGR5) (i.e., hTGR5-CHO cells) were purchased from DiscoveRx Corporation (Fremont, Calif.). hTGR5-CHO cells were grown in Ham's F-12 media supplemented with 10% Fetal Bovine Serum, 1% Penicillin-Streptomycin, 2 mM L-Alanine L-Glutamine (Glutamax), and 800 μg/mL Geneticin selection. The cAMP production assay was performed using DiscoveRx's cAMP XS+ kit (Catalog No. 90-0075XL) following the manufacturer's recommended protocol. Briefly, hTGR5-CHO cells were harvested using non-enzymatic cell dissociation buffer (Sigma-Aldrich, St. Louis, Mo.) and 1×10^6 cells were combined in Phosphate-Buffered Saline (PBS) to a final volume of 496 μL to which 4 μL of 125 mM IBMX (Sigma-Aldrich, St. Louis, Mo.) was added. 500 μL of cAMP antibody solution was added to the harvested cells and incubated at room temperature for 20 min.
Test compounds were serially diluted (half-log dilutions) in DMSO and then further diluted 1:50 in PBS, 10 mM HEPES buffer. 2 μL of serially diluted compound was added to a 384-well low volume plate (Greiner; cat #784075) and centrifuged briefly. 2 μL of the cell/cAMP antibody mixture was then added to each compound-containing well and allowed to incubate at room temperature for one hour. Following incubation, the XS+ kits' ED/Lysis/CL Substrate Working Solution was prepared following the manufacturer's recommended protocol and 4 μL was added to each well of the plate. The plate was then incubated for one hour at room temperature. Following incubation, 4 μL of Enzyme Acceptor reagent was added to the plate and allowed to incubate overnight at room temperature. Luminescent signal was then detected using the Viewlux instrument (Perkin-Elmer, Waltham, Mass.).
(§1) In Table 33, EC50 values for both human and mouse cells were determined according to the TGR5 cAMP assays described above.
On the technique in general: cAMP levels reflect the balance of adenylyl cyclase and phosphodiesterase activity.

A further assay concerns the target T2, mouse TGR5 receptor (Mus musculus, UniProt Q80SS6).
T2 construct: expressed in transfected cells; host or cells: HEK293-EBNA (293 c18, ATCC CRL10852), Hygromycin B selection
T2 sequence (Q80SS6 1-329): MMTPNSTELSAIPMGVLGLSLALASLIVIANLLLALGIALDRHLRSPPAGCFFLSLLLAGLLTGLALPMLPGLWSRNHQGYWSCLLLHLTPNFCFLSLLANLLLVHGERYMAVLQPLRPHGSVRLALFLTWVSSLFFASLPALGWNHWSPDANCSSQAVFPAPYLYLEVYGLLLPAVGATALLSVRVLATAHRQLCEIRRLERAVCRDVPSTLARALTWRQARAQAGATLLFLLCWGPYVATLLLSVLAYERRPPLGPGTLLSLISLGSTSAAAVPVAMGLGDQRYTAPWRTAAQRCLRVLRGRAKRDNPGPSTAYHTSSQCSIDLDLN
The assay can be described thus: Mouse TGR5 cAMP production assay (HTRF, Cisbio cAMP HiRange). Type of assay: cell-based. Conditions: HEK293-EBNA cells overexpressing mouse TGR5, HTRF cAMP HiRange; coded A-D.
Description: Mouse TGR5 cAMP Production Assay
We evaluated compounds of the present invention for their ability to induce cAMP production in HEK-EBNA cells overexpressing the mouse TGR5 receptor. Human embryonic kidney cells (HEK293-EBNA) stably expressing mouse TGR5 receptor were established using the following procedure. Specifically, a commercially-obtained gene encoding mouse TGR5 (accession number BC116914) from Thermo Scientific (Waltham, Mass.) was cloned into an episomal expression vector. The resulting expression plasmid was then transfected into 293 c18 (ATCC® CRL10852™) cells, which express the Epstein-Barr virus nuclear antigen EBNA1 and can support the replication of episomal vectors. Selection for the plasmid was maintained with Hygromycin B. Cells were cultured and maintained in DMEM (Sigma; cat #6429) supplemented with 10% Fetal Bovine Serum, 1% penicillin/streptomycin, 2 mM L-alanine L-glutamine (GlutaMax), and 250 μg/mL Hygromycin.
2. HTRF cAMP Production Assay
In this second cAMP production assay, the cAMP production was measured in 384-well low volume plates (Greiner; cat #784075) using the Cisbio™ cAMP HiRange HTRF Assay Kit (Cisbio) according to the manufacturer's protocol.
Briefly, compounds were initially diluted in 100% DMSO (12-point serial dilution by half logs) in a 96-well plate and then were further diluted 1:50 in PBS containing 10 mM HEPES. 5 μL were transferred to the 384-well assay plate in duplicate. HEK293-EBNA cells stably overexpressing mouse TGR5 were harvested using non-enzymatic cell dissociation buffer (Sigma), spun down, then resuspended in serum-free DMEM with 500 μM IBMX at a density of 500,000 cells/mL. 5 μL of cell suspension was transferred to each well of the 384-well assay plate already containing compound. The plate was covered and incubated at room temperature for 1 hour. The d2-cAMP and anti-cAMP Ab-cryptate stock solutions were prepared as per kit instructions. Then 5 μL of each conjugate (d2 and cryptate) were added to each well of the assay plate. The plate was covered and incubated at room temperature for 1 hour. The plate was read on an Envision™ plate reader (Perkin Elmer).
as §1

On to `Cc1cnccc1-c1cccc([C@H](C)N(CCCCNC(=O)NCCS(=O)(=O)O)S(=O)(=O)c2ccccc2C(F)(F)F)c1` [Compound 28AB, (S)-2-(3-(4-(N-(1-(3-(3-methylpyridin-4-yl)phenyl)ethyl)-2-(trifluoromethyl)phenylsulfonamido)butyl)ureido)ethanesulfonic acid], for which the EC50 is less than 100 nM at human TGR5 receptor and 100 to 999 nM at mouse TGR5 receptor.

`Cc1ccc(S(=O)(=O)NC(CCCCC#N)c2cccc(-c3ccncc3C)c2)nc1` (stereo not drawn) [Compound 35B, N-(5-cyano-1-(3-(3-methylpyridin-4-yl)phenyl)pentyl)-5-methylpyridine-2-sulfonamide]: the EC50 at human TGR5 receptor and on mouse TGR5 receptor was 1000 to 30000 nM each time.

Take `Cc1cnccc1-c1cccc([C@H](C)N(CCCC(=O)NCCS(=O)(=O)NCC(=O)O)S(=O)(=O)c2ccccc2C(F)(F)F)c1` [Compound 20BJ]: the EC50 at human TGR5 receptor and on mouse TGR5 receptor was less than 100 nM in each case.

With `Cc1cnccc1-c1cccc([C@H](C)N(CCCC(=O)NCCS(=O)(=O)NCC(=O)O)S(=O)(=O)c2ccccc2C)c1` [Compound 20AX, (S)-2-(4-(2-methyl-N-(1-(3-(3-methylpyridin-4-yl)phenyl)ethyl)phenylsulfonamido)butanamidoethylsulfonamido)acetate], the results for the half-maximal effective concentration (EC50) at human TGR5 receptor and on mouse TGR5 receptor were less than 100 nM and 100 to 999 nM, respectively.

As for `Cc1c(Cl)cccc1S(=O)(=O)N(CCCC(=O)NCCS(=O)(=O)O)[C@@H](C)c1cccc(-c2ccnnc2)c1` [Compound 20BO, (S)-2-(4-(3-chloro-2-methyl-N-(1-(3-(pyridazin-4-yl)phenyl)ethyl)phenylsulfonamido)butanamido)ethanesulfonic acid], the results for the 50% effective concentration (EC50) at human TGR5 receptor and on mouse TGR5 receptor were 100 to 999 nM and greater than 30000 nM, respectively.

On to `CC[C@H](NS(=O)(=O)c1ccccc1C(F)(F)F)c1cccc(-c2ccncc2OC)c1` [Compound 1CD], for which the EC50 is less than 100 nM on human TGR5 receptor and 100 to 999 nM on mouse TGR5 receptor.

In the case of `CC[C@H](NS(=O)(=O)c1ccccc1C(F)(F)F)c1cccc(-c2ccc3nccn3c2)c1` [Compound 5AX, (S)-N-(1-(3-(imidazo[1,2-a]pyridin-6-yl)phenyl)propyl)-2-(trifluoromethyl)benzenesulfonamide], the half-maximal effective concentration (EC50) at human TGR5 receptor and at mouse TGR5 receptor was 1000 to 30000 nM each time.

In the case of `Cc1cnccc1-c1cccc([C@H](CCCC(=O)NCS(=O)(=O)O)NS(=O)(=O)c2ccccc2C(F)(F)F)c1` [Compound 20BR, (S)-(5-(3-(3-methylpyridin-4-yl)phenyl)-5-(2-(trifluoromethyl)phenylsulfonamido)pentanamido)methanesulfonic acid], the concentration giving a half-maximal response (EC50) at human TGR5 receptor and at mouse TGR5 receptor was 100 to 999 nM in each case.

Regarding `Cc1cnccc1-c1cccc(C(C)(C)N(CCCC(=O)NCCN(C)C)S(=O)(=O)c2cccc(Cl)c2C)c1` [Compound 21AD, 4-(3-chloro-2-methyl-N-(2-(3-(3-methylpyridin-4-yl)phenyl)propan-2-yl)phenylsulfonamido)-N-(2-(dimethyl-amino)ethyl)butanamide], the EC50 is less than 100 nM at human TGR5 receptor and 100 to 999 nM at mouse TGR5 receptor.

As for `Cc1cnccc1-c1cccc([C@H](C)N(CCCC(=O)NC[C@@H](O)[C@H](O)[C@@H](O)[C@@H](O)CO)S(=O)(=O)c2cccc(Cl)c2C)c1` [Compound 20AK, 4-(3-chloro-2-methyl-N-((S)-1-(3-(3-methylpyridin-4-yl)phenyl)ethyl)phenylsulfonamido)-N-((2R,3S,4S,5S)-2,3,4,5,6-pentahydroxyhexyl)butanamide], the EC50 at human TGR5 receptor is less than 100 nM; on mouse TGR5 receptor, 100 to 999 nM.

For `CC(C)(NS(=O)(=O)c1ccccc1C(F)(F)F)c1cccc(-c2ccnnc2)c1` [Compound 1BL], the EC50 on human TGR5 receptor lay in the range of 100 to 999 nM; on mouse TGR5 receptor, 1000 to 30000 nM.

On to `CCc1cnccc1-c1cccc([C@H](C)N(CCCC(=O)NCS(=O)(=O)O)S(=O)(=O)c2ccccc2C(F)(F)F)c1` [Compound 20BE, (S)-(4-(N-(1-(3-(3-ethylpyridin-4-yl)phenyl)ethyl)-2-(trifluoromethyl)phenylsulfonamido)butanamido)methanesulfonic acid], for which the concentration for a half-maximal effect (EC50) at human TGR5 receptor and at mouse TGR5 receptor was less than 100 nM each time.

Take `CCc1cnccc1-c1cccc(C(C)(C)NS(=O)(=O)c2cccc(Cl)c2C)c1` [Compound 2BY]: the EC50 on human TGR5 receptor and on mouse TGR5 receptor was less than 100 nM in each case.

Consider `Cc1ccccc1S(=O)(=O)N(CCCC(=O)NCCS(=O)(=O)O)[C@@H](C)c1cccc(-c2ccncc2O)c1` [Compound 22AA, (S)-2-(4-(N-(1-(3-(3-hydroxypyridin-4-yl)phenyl)ethyl)-2-methylphenylsulfonamido)butanamido)ethanesulfonic acid], for which the results for the concentration for a half-maximal effect (EC50) at human TGR5 receptor and at mouse TGR5 receptor were 100 to 999 nM and 1000 to 30000 nM, respectively.

For the compound `Cc1cnccc1-c1cccc([C@H](CC(=O)N(C)C)NS(=O)(=O)c2ccccc2C(F)(F)F)c1` [Compound 5BB, (S)-N,N-dimethyl-3-(3-(3-methylpyridin-4-yl)phenyl)-3-(2-(trifluoromethyl)phenylsulfonamido)propanamide], the EC50 at human TGR5 receptor and on mouse TGR5 receptor was 100 to 999 nM in each case.

Regarding `Cc1cnccc1-c1cccc(C2CNCCN2S(=O)(=O)c2cccc(Cl)c2C)c1` (stereo not drawn) [Compound 43AE, 1-((3-chloro-2-methylphenyl)sulfonyl)-2-(3-(3-methylpyridin-4-yl)phenyl)piperazine], the EC50 at human TGR5 receptor and on mouse TGR5 receptor was 100 to 999 nM each time.

`Cc1cnccc1-c1cccc([C@H](C)N(CCCC(=O)O)S(=O)(=O)c2cccc(Cl)c2C)c1` [Compound 16]: the EC50 on human TGR5 receptor was 100 to 999 nM; on mouse TGR5 receptor, less than 100 nM.

As to `CC(C)(NS(=O)(=O)c1ccccc1C(F)(F)F)c1cccc(-c2ccncc2CO)c1` [Compound 5AN, N-(2-(3-(3-(hydroxymethyl)pyridin-4-yl)phenyl)propan-2-yl)-2-(trifluoromethyl)benzenesulfonamide], the EC50 at human TGR5 receptor was less than 100 nM; at mouse TGR5 receptor it was 100 to 999 nM.
